Laboratory results published in article PMC9731865, “Gambogic acid and juglone inhibit RNase P through distinct mechanisms” (The Journal of Biological Chemistry, 2022).
Where two headings read alike, the source gives them in different places.

Biological target: T1, A. thaliana PRORP1 (Arabidopsis thaliana, UniProt Q66GI4)
T1 construct: made in house
T1 sequence (Q66GI4 77-572): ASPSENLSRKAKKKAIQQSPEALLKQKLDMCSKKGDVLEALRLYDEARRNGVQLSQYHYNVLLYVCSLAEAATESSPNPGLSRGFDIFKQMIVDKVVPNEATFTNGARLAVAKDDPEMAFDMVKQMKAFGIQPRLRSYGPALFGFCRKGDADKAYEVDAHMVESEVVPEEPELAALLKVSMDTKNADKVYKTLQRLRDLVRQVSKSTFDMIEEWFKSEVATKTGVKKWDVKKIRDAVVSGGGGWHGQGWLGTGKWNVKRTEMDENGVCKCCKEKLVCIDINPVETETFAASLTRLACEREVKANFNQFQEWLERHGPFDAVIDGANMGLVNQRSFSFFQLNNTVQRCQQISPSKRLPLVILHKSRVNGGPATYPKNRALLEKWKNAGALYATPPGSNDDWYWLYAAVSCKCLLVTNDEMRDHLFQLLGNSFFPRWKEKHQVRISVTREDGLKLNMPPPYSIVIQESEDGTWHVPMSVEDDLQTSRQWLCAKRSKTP
Experiment: FP cleavage assay, PRORP1 dose response
Assay type: biochemical
Settings: for activity at 6.25 µM: read-out: PRORP1 Activity (%)
Description: Compounds gambogic acid (A) and juglone (B) were incubated with enzyme at double the reaction concentration for 30 min prior to the addition of an equal volume of substrate to initiate the reaction. PRORP1 reactions (shown in green) were performed with 0.3 nM PRORP1 and 800 nM pre-tRNA containing 40 nM Fl-pre-tRNA at 25 °C in 30 mM MOPS pH 7.8, 5 mM MgCl2, 100 mM NaCl, 1 mM TCEP, 500 nM (12 μg/ml) yeast tRNA, 5 mM spermidine, 6.65 μg/ml BSA, and 0.01% NP-40. MRPP1/2/3 reactions (shown in red) were performed using 50 nM MRPP3, 500 nM MRPP1/2, 500 nM pre-tRNA containing 40 nM Fl-pre-tRNA at 37 °C in 50 mM MOPS (pH 7.8), 1 mM TCEP, 4.5 mM MgCl2, and 100 mM NaCl. B. subtilis RNase P reactions (shown in blue) were performed using 20 nM RNase P and 500 nM pre-tRNA containing 40 nM Fl-pre-tRNA at 37 °C in 50 mM Tris, pH 7.2, 5 mM MgCl2, 100 mM KCl, 500 nM (12 μg/ml) yeast tRNA, 20 mM dithiothreitol (DTT), 10 mM spermidine, and 0.01% NP-40. Equation 1 was fit to each dataset.
The activity of PRORP1 catalyzed pre-tRNA cleavage was measured by monitoring the fluorescence anisotropy (FA) signal (λex = 485 nm and λem = 535 nm) over time at 25 °C in buffer conditions optimized for a high-throughput format, 30 mM MOPS pH 7.8, 5 mM MgCl2, 100 mM NaCl, 1 mM TCEP, 500 nM (12 μg/ml) yeast tRNA, 5 mM spermidine, 6.65 μg/ml BSA, and 0.01% NP-40. Yeast tRNA^mix (Roche) was used to reduce the number of compounds that inhibit PRORP1 activity by targeting tRNA. Prior to each reaction, pre-tRNA was heated for 3 min at 95 °C to unfold the RNA and refolded in the reaction buffer at room temperature (25 °C) for 30 min. Reactions were performed in black, 96-well plates (Corning Incorporation, #3686) using a TECAN plate-reader (Infinite F500, G-factor = 1.05) at 25 °C, and the FA values recorded. Reactions were initiated with the addition of substrate to enzyme. Experiments were done in the presence of excess substrate. The concentration of enzyme was 0.3 to 5 nM, the concentration of labeled substrate (Fl-pre-tRNA) was 40 nM, and the concentration of pre-tRNA was 120 to 4000 nM. The concentration of Fl-pre-tRNA was held constant in all reactions.
The dose response was measured using the FP assay as described above with varying concentrations of compound. Compounds were incubated with PRORP1 at twice the reaction concentration for 30 min prior to the addition of equal volumes of substrate to initiate the reaction. Experiments were done under multiple turnover conditions (same buffer conditions as the FP assay). […] PRORP1 activity was determined as a function of inhibitor concentration, and Equation 1 was fit to the data to determine the IC50 value. The standard error of the mean (SEM) is reported from the fit.(1) Activity(%)=100/1+([I]/IC50)^n

[1] = 6.25 μM of inhibitor, FP cleavage assay

Row | SMILES | activity at 6.25 µM [1] [%] | also measured
1 | Cc1cc(-c2ccc(/N=N/c3ccc4c(S(=O)(=O)O)cc(S(=O)(=O)O)c(N)c4c3O)c(C)c2)ccc1/N=N/c1ccc2c(S(=O)(=O)O)cc(S(=O)(=O)O)c(N)c2c1O [evans blue] | 20.2 | –
2 | CN(C)c1ccc(C(=C2C=CC(=[N+](C)C)C=C2)c2ccc(N(C)C)cc2)cc1 [gentian violet] | 0 | –
3 | CC(=O)[O][Hg][c]1ccccc1 [phenylmercuric acetate] | – | PRORP1 Activity (%) [1]: 32.2%
4 | CC1=CC(=O)c2c(O)cccc2C1=O [plumbagin] | 2.6 | –
5 | COC(=O)/C(C)=C\C[C@@]12OC(C)(C)[C@@H]3C[C@@H](C=C4C(=O)c5c(O)c6c(c(CC=C(C)C)c5O[C@]431)O[C@](C)(CCC=C(C)C)C=C6)C2=O [methyl gambogate] | – | activity at 6.25 µM: 34.8%
6 | O=C(O)C1=CC(=C(c2ccc(O)c(C(=O)O)c2)c2ccc(O)c(C(=O)O)c2)C=CC1=O [aurintricarboxylic acid] | 46.5 | –
7 | CC(=O)O[C@@H]1C[C@@]2(C)[C@H](c3ccoc3)C[C@H]3O[C@]32[C@]2(C)C(=O)C(O)=C3C(C)(C)C(=O)C=C[C@]3(C)[C@@H]12 [anthothecol] | 15.5 | –
8 | O=C1C(Cl)=C(Cl)C(=O)C(Cl)=C1Cl [chloranil] | 40.2 | –
